Test results as given in patent US7989464B2, “mGluR1 antagonists as therapeutic agents” (Schering Corporation, priority 2004, dated 2011).
Like-named read-outs stand apart in the source and are kept apart here.

Target: T1, hmGluR1 receptor (Homo sapiens, UniProt Q13255)
T1 construct: expressed in transfected cells
Test: IC50 determination: intracellular calcium mobilization (FLIPR) upon Quisqualate stimulation in CHO cells stably expressing hmGluR1
Type: cell-based
Conditions: against Quisqualate 1 μM (EC80)
Protocol: A CHO cell line stably expressing hmGluR1 receptor was established. One day prior to assay, cells were split in growth media at concentration of 50,000 cells/well in a volume of 100 μl and seeded into black clear-bottom 96-well plates. After two to six hours, when cells were well attached to the plate, growth medium was replaced with assay medium (100 μL) consisting of DMEM high glucose, supplemented with GPT (1 U/mL) and Sodium pyruvate, 1 mM. Following overnight incubation, medium was discarded and cells were loaded for 2 h with dye from the Calcium 3 Assay Reagent Kit (Molecular Devices, # R8033), prepared according to manufacturers' instructions. […] Test compounds were added 10 minutes before Quisqualate.

[1] = FLIPR calcium mobilization, read-out: IC50 Class
[2] = class symbols, read-out: mGIuR 1 IC50

T1 sequence (Q13255 19-1194): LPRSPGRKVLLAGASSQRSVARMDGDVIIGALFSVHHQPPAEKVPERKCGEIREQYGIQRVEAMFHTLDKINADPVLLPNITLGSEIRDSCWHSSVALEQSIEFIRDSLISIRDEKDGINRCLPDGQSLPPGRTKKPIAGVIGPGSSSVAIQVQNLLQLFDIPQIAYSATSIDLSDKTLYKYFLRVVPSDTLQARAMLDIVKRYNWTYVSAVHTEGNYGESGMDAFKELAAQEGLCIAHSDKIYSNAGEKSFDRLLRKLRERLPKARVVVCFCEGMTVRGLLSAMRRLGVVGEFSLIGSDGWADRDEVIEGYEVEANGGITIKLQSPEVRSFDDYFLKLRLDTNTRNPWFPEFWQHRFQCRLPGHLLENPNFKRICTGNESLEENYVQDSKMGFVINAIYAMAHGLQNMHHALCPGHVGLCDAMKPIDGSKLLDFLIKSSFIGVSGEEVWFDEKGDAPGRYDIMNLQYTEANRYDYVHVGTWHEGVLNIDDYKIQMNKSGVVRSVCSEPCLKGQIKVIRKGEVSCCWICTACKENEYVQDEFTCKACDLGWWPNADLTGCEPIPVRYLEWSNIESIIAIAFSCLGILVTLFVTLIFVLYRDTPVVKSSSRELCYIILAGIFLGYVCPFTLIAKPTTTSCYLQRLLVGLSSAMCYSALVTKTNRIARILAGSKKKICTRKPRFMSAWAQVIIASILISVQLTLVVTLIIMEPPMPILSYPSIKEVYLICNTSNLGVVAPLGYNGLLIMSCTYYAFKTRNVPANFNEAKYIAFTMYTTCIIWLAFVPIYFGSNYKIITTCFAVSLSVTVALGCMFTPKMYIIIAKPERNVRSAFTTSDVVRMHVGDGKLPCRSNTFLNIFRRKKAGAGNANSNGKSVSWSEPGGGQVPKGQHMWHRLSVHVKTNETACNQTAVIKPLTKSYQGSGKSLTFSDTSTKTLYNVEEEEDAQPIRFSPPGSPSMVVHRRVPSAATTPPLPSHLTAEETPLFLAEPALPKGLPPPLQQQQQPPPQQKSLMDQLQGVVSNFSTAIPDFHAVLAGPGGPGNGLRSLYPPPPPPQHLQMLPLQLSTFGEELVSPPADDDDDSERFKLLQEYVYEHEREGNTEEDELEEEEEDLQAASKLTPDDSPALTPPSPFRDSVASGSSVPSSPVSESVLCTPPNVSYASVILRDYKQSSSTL

| Compound | IC50 [1] | IC50 [2] | also measured |
| --- | --- | --- | --- |
| CNc1ccnc2sc3c(=O)n(-c4ccc(C)cc4)c(C)nc3c12 [113G] | – | < 50 nM | – |
| CCN(C)c1ccnc2sc3c(=O)n(-c4ccccc4)c(C)nc3c12 [113D] | – | < 50 nM | – |
| COc1ccccc1CCn1cnc2c(sc3nccc(N(C)C)c32)c1=O [28EM] | > 1000 nM | – | – |
| CN(C)c1cncc2sc3c(=O)n(N4CCCCC4)cnc3c12 [60L] | – | 150 to 1000 nM | – |
| CN(C)c1c(-c2cccc(C#N)c2)cnc2sc3c(=O)n(C4CCCCC4)cnc3c12 [47A] | – | 150 to 1000 nM | – |
| CSCCNc1ncnc2sc3c(=O)n(-c4ccc(C)cc4)cnc3c12 [95FR] | < 50 nM | – | – |
| CC(=O)N1CCN(c2ccnc3sc4c(=O)n(C5CCCCC5)cnc4c23)CC1 [compound 62] | – | > 1000 nM | – |
| Cc1ccc(-n2cnc3c(sc4nc(O)cc(N(C)C)c43)c2=O)cc1 [172A] | < 50 nM | – | – |
| CCCCc1nc2c(sc3nccc(N(C)C)c32)c(=O)n1-c1ccc(OC)cc1 [116G] | – | 150 to 1000 nM | – |
| COc1cc(-n2cnc3c(sc4nccc(N(C)C)c43)c2=O)cc(OC)c1OC [7AF] | – | > 1000 nM | – |
| CCN(CC)C(=O)N1CCN(c2ccnc3sc4c(=O)n(C5CCCCC5)cnc4c23)CC1 [compound 64] | – | > 1000 nM | – |
| CN(C)c1ccnc2sc3c(=O)n(-c4ccc(C5CC5)c(F)c4)cnc3c12 [137G] | < 50 nM | – | – |
| O=c1c2sc3ncnc(NC4CC4)c3c2ncn1-c1ccc(Br)cc1F [95AX] | 50 to 150 nM | – | – |
| COc1ccc(-n2cnc3c(sc4nccc(NCC(F)(F)F)c43)c2=O)c(C)c1 [28BP] | 150 to 1000 nM | – | – |
| C=C(C)CNc1ncnc2sc3c(=O)n(-c4ccc5sccc5c4)cnc3c12 [95FE] | < 50 nM | – | – |
| CCN(C)c1ncnc2sc3c(=O)n(-c4ccc(C)cc4)cnc3c12 [95H] | – | < 50 nM | – |
| CN(C)c1ccc(C#N)c2sc3c(=O)n(C4CCCCC4)cnc3c12 [compound 105] | – | > 1000 nM | – |
| C=C(C)CNc1ncnc2sc3c(=O)n(C4CCCC4)cnc3c12 [95FL] | < 50 nM | – | – |
| CN(C)c1cccc2sc3c(=O)n(-c4ccc5scnc5c4)cnc3c12 [103F] | – | 150 to 1000 nM | – |
| CN(C)c1ccnc2sc3c(=O)n(C4CCCC4)cnc3c12 [7W] | – | < 50 nM | – |
| CN(C)c1cccc2sc3c(=O)n(C4CCCCC4)cnc3c12 [103B] | – | 150 to 1000 nM | – |

| Compound | IC50 [1] | IC50 [2] | also measured |
| --- | --- | --- | --- |
| Cc1ccc(-n2cnc3c(sc4cnnc(NC5CC5)c43)c2=O)cc1 [167A] | 150 to 1000 nM | – | – |
| Cc1cc(N(C)C)c2c(n1)sc1c(=O)n(-c3cccc(Br)c3)cnc12 [7DN] | – | 50 to 150 nM | – |
| O=c1c2sc3ncnc(Nc4ccccc4)c3c2ncn1-c1ccc(Br)cc1 [95GF] | > 1000 nM | – | – |
| O=c1c2sc3ncnc(NC4CC4)c3c2ncn1-c1ccc2c(c1)CCO2 [95DK] | < 50 nM | – | – |
| C#CCNc1ncnc2sc3c(=O)n(-c4ccc5sccc5c4)cnc3c12 [95EP] | 150 to 1000 nM | – | – |
| C#CCNc1nncc2sc3c(=O)n(-c4ccc(C)cc4)cnc3c12 [167J] | 50 to 150 nM | – | – |
| Cc1ccc(-n2c(C)nc3c(sc4nccc(NCCO)c43)c2=O)cc1 [113N] | – | 50 to 150 nM | – |
| CN(C)c1cncc2sc3c(=O)n(-c4ccc(Cl)cc4)cnc3c12 [37E] | – | < 50 nM | – |
| CC1CCC(n2cnc3c(sc4nccc(N(C)C)c43)c2=O)CC1 (centres unmarked) [15Z] | – | < 50 nM | – |
| CN(C)c1c(Br)cnc2sc3c(=O)n(C4CCCCC4)cnc3c12 [compound 43] | – | 150 to 1000 nM | – |
| COc1ccc(-n2cnc3c(sc4nccc(NCC(F)(F)F)c43)c2=O)c(F)c1 [28BM] | 50 to 150 nM | – | – |
| Cc1cc(N(C)C)c2c(n1)sc1c(=O)n(-c3ccc(C(F)(F)F)cc3)cnc12 [7DM] | – | 150 to 1000 nM | – |
| CN(C)c1ccnc2sc3c(=O)n(CCO)cnc3c12 [15A] | – | > 1000 nM | – |
| CC(C)Nc1ccnc2sc3c(=O)n(C4CCCCC4)cnc3c12 [28AH] | – | 150 to 1000 nM | – |
| CN(C)c1cccc2sc3c(=O)n(-c4cccc(F)c4F)cnc3c12 [103O] | > 1000 nM | – | – |
| CN(C)c1ccnc2sc3c(=O)n(-c4ccc5c(c4)CCC5)cnc3c12 [7BI] | – | < 50 nM | – |
| CCNc1nncc2sc3c(=O)n(-c4ccc(C)cc4)cnc3c12 [167I] | 150 to 1000 nM | – | – |
| CN(C)c1ccnc2sc3c(=O)n(NC4CCCCC4)cnc3c12 [60G] | – | < 50 nM | – |
| O=c1c2sc3nccc(NCC4CC4)c3c2ncn1C1CCCCC1 [28AJ] | – | 150 to 1000 nM | – |
| Cc1ccc(-n2cnc3c(sc4ncc(C(=O)N(C)C)cc43)c2=O)cc1 [205A] | > 1000 nM | – | – |

Now from value to molecule, other results behind:

| IC50 [1] | IC50 [2] | Compound | also measured |
| --- | --- | --- | --- |
| > 1000 nM | – | Cc1ccc(-n2cnc3c(sc4nccc(NC5CCCCC5)c43)c2=O)cc1 [28DF] | – |
| – | 50 to 150 nM | COc1ccc(-n2cnc3c(sc4nc(C)cc(N(C)C)c43)c2=O)cc1 [7CJ] | – |
| > 1000 nM | – | CC#Cc1ccnc2sc3c(=O)n(-c4ccc(Cl)cc4)cnc3c12 [compound 177] | – |
| < 50 nM | – | COCCNc1ncnc2sc3c(=O)n(-c4ccc(Cl)cc4)cnc3c12 [95DI] | – |
| 150 to 1000 nM | – | CNc1ccnc2sc3c(=O)n(-c4ccncc4)cnc3c12 [28EF] | – |
| < 50 nM | – | CNc1ncnc2sc3c(=O)n(-c4ccc(Cl)cc4)cnc3c12 [95DB] | – |
| 150 to 1000 nM | – | COc1ccc(-n2cnc3c(sc4ncnc(Nc5ccc(Cl)cc5)c43)c2=O)cc1 [190E] | – |
| < 50 nM | – | Cc1ccc(-n2cnc3c(sc4nccc(C(C)C)c43)c2=O)cc1 [29F] | – |
| – | 50 to 150 nM | CCc1nc2c(sc3nccc(N(C)C)c32)c(=O)n1-c1ccc(OC)cc1 [116E] | – |
| > 1000 nM | – | COc1ccc(-n2cnc3c(sc4ncnc(OC)c43)c2=O)cc1 [95GO] | – |
| – | < 50 nM | COc1ccc(-n2cnc3c(sc4nccc(N(C)C)c43)c2=O)c(C)c1 [7DI] | – |
| 150 to 1000 nM | – | O=c1c2sc3nccc(N4CCCC4)c3c2ncn1-c1ccc(Br)cc1 [28GT] | – |
| < 50 nM | – | Cc1ccc(-n2cnc3c(sc4ncc(I)c(N)c43)c2=O)cc1 [compound 175] | IC50 (FLIPR calcium mobilization, read-out: mGluR1 IC50): 0.76 nM |
| 150 to 1000 nM | – | COc1ncnc2sc3c(=O)n(-c4ccc(Cl)cc4)cnc3c12 [95FO] | – |
| – | < 50 nM | Cc1ccc(-n2cnc3c(sc4nc(N)nc(N)c43)c2=O)cc1 [71A] | – |
| 50 to 150 nM | – | COc1ccc(-n2cnc3c(sc4nccc(NC5CC5)c43)c2=O)c(C)c1 [131I] | – |
| – | > 1000 nM | COc1ccc(-n2cnc3c(sc4nccnc43)c2=O)cc1 [compound 40] | – |
| 50 to 150 nM | – | CC(=O)c1ccnc2sc3c(=O)n(-c4ccc(Cl)cc4)cnc3c12 [compound 184] | – |
| – | 150 to 1000 nM | COc1ccc(-n2cnc3c(sc4nccc(NCC5CC5)c43)c2=O)cc1 [28AX] | – |
| – | < 50 nM | CCN(C)c1ccnc2sc3c(=O)n(-c4ccc(C)cc4)cnc3c12 [28AK] | – |
| > 1000 nM | – | COc1ccc(-n2cnc3c(sc4ncnc(Nc5ccccc5Cl)c43)c2=O)cc1 [190N] | – |
| 50 to 150 nM | – | CNc1ccnc2sc3c(=O)n(-c4cccc(Cl)c4)cnc3c12 [28CC] | – |
| > 1000 nM | – | Cc1ccc(-n2cnc3c(sc4nccc(N5CC[C@H](O)C5)c43)c2=O)cc1 [28CU] | – |
| – | < 50 nM | Cc1ccc(-n2cnc3c(sc4nccc(N(C)C)c43)c2=O)cc1C [7CV] | – |
| – | < 50 nM | CCNc1ncnc2sc3c(=O)n(-c4ccc(C)cc4)cnc3c12 [95P] | – |
| < 50 nM | – | C#CCNc1ncnc2sc3c(=O)n(-c4ccc(Br)cc4)cnc3c12 [95EQ] | – |
| 150 to 1000 nM | – | O=c1c2sc3nccc(N4CC(O)C4)c3c2ncn1-c1ccc(Cl)cc1 [28DI] | – |

| IC50 [1] | IC50 [2] | Compound | also measured |
| --- | --- | --- | --- |
| – | > 1000 nM | CN(C)c1ccnc2sc3c(=O)n(-c4ccc(C(C)(C)C)cc4)cnc3c12 [7BB] | – |
| – | < 50 nM | CN(C)c1ccnc2sc3c(=O)n(-c4cccc(Br)c4)cnc3c12 [7DL] | – |
| 150 to 1000 nM | – | Cc1ccc(-n2cnc3c(sc4nccc(NC5CCC5)c43)c2=O)cc1 [28DA] | – |
| 50 to 150 nM | – | CN(CC(O)CO)c1ccnc2sc3c(=O)n(-c4ccc(Cl)cc4)cnc3c12 (centres unmarked) [28HQ] | – |
| < 50 nM | – | O=c1c2sc3nccc(NCCO)c3c2ncn1-c1ccc(Br)cc1 [28GA] | – |
| – | 150 to 1000 nM | Cc1ccc(-n2cnc3c(sc4nccc(NC[C@@H](C)O)c43)c2=O)cc1 [29A] | – |
| – | < 50 nM | COc1ccc(-n2cnc3c(sc4nccc(N(C)C)c43)c2=O)c(F)c1 [7DK] | – |
| – | < 50 nM | CN(C)c1ccnc2sc3c(=O)n(-c4ccc(O)c(F)c4)cnc3c12 [7CT] | – |
| < 50 nM | – | COCCNc1ccnc2sc3c(=O)n(-c4ccc(Br)cc4)cnc3c12 [28GO] | – |
| 150 to 1000 nM | – | O=c1c2sc3nccc(NC4CC4)c3c2ncn1-c1ccc(C2CC2)cc1 [137I] | – |
| – | 150 to 1000 nM | COc1ccc(-n2cnc3c(sc4nccc(Br)c43)c2=O)cc1 [compound 150] | – |
| – | < 50 nM | COc1ccc(-n2cnc3c(sc4nccc(NCC(F)(F)F)c43)c2=O)cc1 [28AW] | – |
| – | < 50 nM | CCN(C)c1ncnc2sc3c(=O)n(-c4ccc(OC(F)F)cc4)cnc3c12 [95T] | – |
| – | > 1000 nM | Cc1ccc(-n2cnc3c(sc4nccc(OCCO)c43)c2=O)cc1 [66E] | – |
| – | < 50 nM | Cc1ccc(-n2cnc3c(sc4nccc(N(C)C)c43)c2=O)cc1Br [7DQ] | – |
| – | < 50 nM | CN(C)c1ccnc2sc3c(=O)n(-c4ccc(OC(F)F)cc4)cnc3c12 [7Z] | – |
| – | < 50 nM | CNc1ccnc2sc3c(=O)n(-c4ccc(OC)cc4)cnc3c12 [28I] | – |
| – | < 50 nM | CCCN(C)c1ccnc2sc3c(=O)n(-c4ccc(OC)cc4)cnc3c12 [28AO] | – |
| 150 to 1000 nM | – | Cc1ccc(-n2cnc3c(sc4nccc(N5CC(O)C5)c43)c2=O)cc1 [28DH] | – |
| – | < 50 nM | C#CCN(C)c1ccnc2sc3c(=O)n(-c4ccc(C)cc4)cnc3c12 [28AB] | – |
| 50 to 150 nM | – | C#CCNc1nc(C)nc2sc3c(=O)n(-c4ccc(OC)cc4)cnc3c12 [95FM] | – |
| – | < 50 nM | Cc1ccc(-n2cnc3c(sc4nccc(N)c43)c2=O)cc1 [72H] | – |
| – | < 50 nM | CN(C)c1ccnc2sc3c(=O)n(-c4cccc(Cl)c4)cnc3c12 [7L] | – |
| < 50 nM | – | C#CCNc1ncnc2sc3c(=O)n(-c4ccc(OC)cc4)cnc3c12 [95EI] | – |
| – | > 1000 nM | CN(C)c1ccnc2sc3c(=O)n(-c4ccc(I)cc4)cnc3c12 [7M] | – |
| > 1000 nM | – | O=c1c2sc3nccc(OCCO)c3c2ncn1-c1ccc(Cl)cc1 [66H] | – |
